Assay results taken from patent publication US20220324835A1 (Nurix Therapeutics, Inc., priority 2018, published 2022).

Columns and labels:
[1] = system: T-cell; assay: CD25 cell surface staining on T-cells stimulated with anti-CD3 antibody alone (Biological Example 2); type: cell-based; conditions: 1 μM compound, primary human total T-cells, baseline = anti-CD3/anti-CD28 stimulated cells without inhibitor, read-out: CD25 staining, Anti-CD3 stimulation, fold change over baseline
[2] = biological target: T1, Cbl-b (Homo sapiens, UniProt Q13191); assay: Cbl-b activity assay (Cbl-b inhibition assay), TR-FRET of Cbl-b interaction with UbcH5B-Ub; type: biochemical; conditions: assay buffer with 100 mM NaCl, 60 nM Src kinase; read-out: Cbl-b activity IC50
Outline: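 TR-FRET readout of Cbl-b binding to Bodipy-fluorescein N-terminally labeled Ub conjugated to UbcH5B C85K, measured with compound present. After compound incubation, 60 nM Src kinase with 1 mM ATP and 5 mM MgCl2 (final) was added for 1.5 h, then a further 1 h incubation; asterisked values used 50 mM NaCl buffer and 30 nM Src.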

[3] = system: T-cell; assay: IL-2 secretion from T-cells co-stimulated with anti-CD3 and anti-CD28 antibody (Biological Example 2); type: cell-based, human; conditions: Homo sapiens, T-cell, primary human total T-cells, baseline = anti-CD3/anti-CD28 stimulated cells without inhibitor, read-out: IL-2 secretion, Anti-CD3/Anti-CD28 stimulation, fold change over baseline; for fold induction at 0.3 µM: 0.3 μM compound; for fold induction at 1 µM: 1 μM compound
Outline: (§1)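 No assay protocol given; T-cells stimulated with anti-CD3 alone or anti-CD3 plus anti-CD28, with or without Cbl-b inhibitor. Activation read as IL-2 secretion or CD25 surface staining, expressed as fold over baseline from uninhibited cells […].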

[4] = system: T-cell; assay: IL-2 secretion from T-cells stimulated with anti-CD3 antibody alone (Biological Example 2); type: cell-based; conditions: 1 μM compound, primary human total T-cells, read-out: IL-2 secretion, Anti-CD3 stimulation, fold change over baseline
[5] = system: T-cell; assay: CD25 cell surface staining on T-cells co-stimulated with anti-CD3 and anti-CD28 antibody (Biological Example 2); type: cell-based, human; conditions: Homo sapiens, T-cell, primary human total T-cells, baseline = anti-CD3/anti-CD28 stimulated cells without inhibitor, read-out: CD25 staining, Anti-CD3/Anti-CD28 stimulation, fold change over baseline; for fold induction at 0.3 µM: 0.3 μM compound; for fold induction at 1 µM: 1 μM compound
Outline: as §1

[6] = biological target: T1, Cbl-b; assay: Cbl-b inhibition assay (Cbl-b activity assay, FRET, Biological Example 1; 100 mM NaCl, 60 nM Src kinase); type: biochemical; conditions: upper bound stated in text lists; read-out: IC50 values in the Cbl-b inhibition assay of Biological Example 1
Outline: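 Steps: Src kinase phosphorylates N-terminal biotinylated Avi-tagged Cbl-b; phosphorylated Cbl-b binds Bodipy-fluorescein ubiquitin-loaded UbcH5B; streptavidin-terbium on Cbl-b sits close to the fluorescein label, producing FRET. Inhibitors block UbcH5B-Ub binding.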

T1 sequence (Q13191 36-427): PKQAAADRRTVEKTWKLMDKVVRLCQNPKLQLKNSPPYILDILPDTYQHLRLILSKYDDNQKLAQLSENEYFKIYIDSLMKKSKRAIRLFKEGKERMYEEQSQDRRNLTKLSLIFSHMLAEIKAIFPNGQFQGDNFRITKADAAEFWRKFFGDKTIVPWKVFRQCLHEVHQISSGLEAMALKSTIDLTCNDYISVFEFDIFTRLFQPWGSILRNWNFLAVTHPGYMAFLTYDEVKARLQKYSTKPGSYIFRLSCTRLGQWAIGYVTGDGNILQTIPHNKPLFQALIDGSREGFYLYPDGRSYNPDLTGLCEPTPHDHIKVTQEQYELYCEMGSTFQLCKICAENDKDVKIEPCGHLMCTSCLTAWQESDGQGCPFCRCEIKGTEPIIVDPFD

| SMILES | fold induction at 1 µM [1] | IC50 [2] [nM] | fold induction at 0.3 µM [3] | fold induction at 1 µM [3] | fold induction at 1 µM [4] | fold induction at 0.3 µM [5] | fold induction at 1 µM [5] | IC50 [6] [nM] |
| --- | --- | --- | --- | --- | --- | --- | --- | --- |
| CC(O)c1cc2c(c(C(F)(F)F)c1)CN(c1cccc(C3(Cc4nncn4C)COC3)c1)C2=O (stereo not drawn) [Compound 540, 6-(l-hydroxyethyl)-2-(3-(3-((4-methyl-4H-1,2,4-triazol-3-yl)methyl)oxetan-3-yl)phenyl)-4-(trifluoromethyl)isoindolin-1-one] | > 1 | < 100 | 1.01 to 2.5 | 2.51 to 5 | 0.151 to 0.2 | 1.01 to 1.3 | 1.01 to 1.3 | ≤ 100 |
| C[C@H](c1cc2c(c(C(F)(F)F)c1)CN(c1cccc(C3(Cc4nncn4C)COC3)c1)C2=O)N1C[C@H]2C[C@H]2C1 [Compound 541b, 6-((1R)-1-(3-azabicyclo[3.1.0]hexan-3-yl)ethyl)-2-(3-(3-((4-methyl-4H-1,2,4-triazol-3-yl)methyl)oxetan-3-yl)phenyl)-4-(trifluoromethyl)isoindolin-1-one] | > 1 | < 100 | > 7.5 | > 7.5 | > 0.201 | 1.31 to 1.5 | 1.31 to 1.5 | ≤ 100 |
| C[C@@H](c1cc2c(c(C(F)(F)F)c1)CN(c1cccc(C3(Cc4nncn4C)COC3)c1)C2=O)N1CC(C)(F)C1 [Compound 543a, (S)-6-(1-(3-fluoro-3-methylazetidin-1-yl)ethyl)-2-(3-(3-((4-methyl-4H-1,2,4-triazol-3-yl)methyl)oxetan-3-yl)phenyl)-4-(trifluoromethyl)isoindolin-1-one] | > 1 | < 100 | 2.51 to 5 | > 7.5 | > 0.201 | 1.31 to 1.5 | 1.51 to 1.75 | ≤ 100 |
| C[C@H](c1cc2c(c(C(F)(F)F)c1)CN(c1cccc(C3(Cc4nncn4C)COC3)c1)C2=O)N1CC(C)(F)C1 [Compound 543b, (R)-6-(1-(3-fluoro-3-methylazetidin-1-yl)ethyl)-2-(3-(3-((4-methyl-4H-1,2,4-triazol-3-yl)methyl)oxetan-3-yl)phenyl)-4-(trifluoromethyl)isoindolin-1-one] | > 1 | < 100 | 5 to 7.5 | > 7.5 | > 0.201 | 1.51 to 1.75 | 1.51 to 1.75 | ≤ 100 |
| Cn1cnnc1CC1(c2cccc(N3Cc4c(cc(C(F)(F)C(=O)O)cc4C(F)(F)F)C3=O)c2)COC1 [Example 544, 2,2-difluoro-2-(2-(3-(3-((4-methyl-4H-1,2,4-triazol-3-yl)methyl)oxetan-3-yl)phenyl)-3-oxo-7-(trifluoromethyl)isoindolin-5-yl)acetic acid] | 0.601 to 0.8 | 301 to 1000 | 1.01 to 2.5 | 1.01 to 2.5 | < 0.05 | 1.01 to 1.3 | 1.01 to 1.3 | ≤ 1000 |
| CC[C@@H](c1cc2c(c(C(F)(F)F)c1)CN(c1cccc(C3(Cc4nncn4C)COC3)c1)C2=O)N1CC[C@H](F)C1 [Example 545, 6-((S)-1-((S)-3-fluoropyrrolidin-1-yl)propyl)-2-(3-(3-((4-methyl-4H-1,2,4-triazol-3-yl)methyl)oxetan-3-yl)phenyl)-4-(trifluoromethyl)isoindolin-1-one] | > 1 | < 100 | > 7.5 | > 7.5 | > 0.201 | 1.51 to 1.75 | 1.51 to 1.75 | ≤ 100 |
| CC[C@H](c1cc2c(c(C(F)(F)F)c1)CN(c1cccc(C3(Cc4nncn4C)COC3)c1)C2=O)N1CC[C@H](F)C1 [Example 546, 6-((R)-1-((S)-3-fluoropyrrolidin-1-yl)propyl)-2-(3-(3-((4-methyl-4H-1,2,4-triazol-3-yl)methyl)oxetan-3-yl)phenyl)-4-(trifluoromethyl)isoindolin-1-one] | > 1 | < 100 | > 7.5 | > 7.5 | > 0.201 | 1.51 to 1.75 | 1.51 to 1.75 | ≤ 100 |
| Cn1cnnc1CC1(c2cccc(N3Cc4c(cc(C(F)(F)CO)cc4C(F)(F)F)C3=O)c2)COC1 [Example 547, 6-(1,1-difluoro-2-hydroxyethyl)-2-(3-(3-((4-methyl-4H-1,2,4-triazol-3-yl)methyl)oxetan-3-yl)phenyl)-4-(trifluoromethyl)isoindolin-1-one] | 0.801 to 1 | < 100 | 1.01 to 2.5 | 1.01 to 2.5 | 0.101 to 0.15 | 1.01 to 1.3 | 1.01 to 1.3 | ≤ 100 |
| CN(c1cc2c(c(C(F)(F)F)c1)CN(c1cccc([C@@](C)(F)C(F)(F)c3nncn3C)c1)C2=O)[C@@H]1CNC[C@@H]1F [Example 548, 6-(((3R,4S)-4-fluoropyrrolidin-3-yl)(methyl)amino)-2-(3-((R)-1,1,2-trifluoro-1-(4-methyl-4H-1,2,4-triazol-3-yl)propan-2-yl)phenyl)-4-(trifluoro-methyl)isoindolin-1-one] | 0.601 to 0.8 | 100 to 300 | 1.01 to 2.5 | 2.51 to 5 | 0.101 to 0.15 | 1.01 to 1.3 | 1.01 to 1.3 | ≤ 300 |
| CN(c1cc2c(c(C(F)(F)F)c1)CN(c1cccc([C@@](C)(F)C(F)(F)c3nncn3C)c1)C2=O)[C@H]1CNC[C@H]1F [Example 549, 6-(((3S,4R)-4-fluoropyrrolidin-3-yl)(methyl)amino)-2-(3-((R)-1,1,2-trifluoro-1-(4-methyl-4H-1,2,4-triazol-3-yl)propan-2-yl)phenyl)-4-(trifluoromethyl)iso-indolin-1-one] | 0.801 to 1 | 100 to 300 | 1.01 to 2.5 | 2.51 to 5 | 0.151 to 0.2 | 1.01 to 1.3 | 1.31 to 1.5 | ≤ 300 |
| C[C@@H](c1cc2c(c(C(F)(F)F)c1)CN(c1cccc(C3(Cc4nncn4C)COC3)c1)C2=O)N1CCC2(CC1)CC2 [Example 558a, (S)-6-(1-(6-azaspiro[2.5]octan-6-yl)ethyl)-2-(3-(3-((4-methyl-4H-1,2,4-triazol-3-yl)methyl)oxetan-3-yl)phenyl)-4-(trifluoromethyl)isoindolin-1-one] | > 1 | < 100 | > 7.5 | > 7.5 | > 0.201 | 1.01 to 1.3 | 1.01 to 1.3 | ≤ 100 |
| C[C@H](c1cc2c(c(C(F)(F)F)c1)CN(c1cccc(C3(Cc4nncn4C)COC3)c1)C2=O)N1CCC2(CC1)CC2 [Example 558b, (R)-6-(1-(6-azaspiro[2.5]octan-6-yl)ethyl)-2-(3-(3-((4-methyl-4H-1,2,4-triazol-3-yl)methyl)oxetan-3-yl)phenyl)-4-(trifluoromethyl)isoindolin-1-one] | > 1 | < 100 | > 7.5 | > 7.5 | > 0.201 | 1.01 to 1.3 | 1.01 to 1.3 | ≤ 100 |
